Tests used:
[1] = test system: Adult male C57BL/6J mice; experiment: Conditioned avoidance response (CAR) assay, Example 1; assay type: in vivo; conditions: for Effect on conditioned avoidance responding (dose-response, FIG. 1): each compound alone, compiled independent studies; for Avoidance responding versus vehicle-vehicle control, drug alone: subthreshold doses alone (data not shown); for Blockade of xanomeline's effects in CAR by muscarinic antagonist: maximally active dose of xanomeline, FIG. 11, N=14
From the text: In the CAR assay, mice were first trained to avoid a foot shock (i.e., crossing from one side of a shuttle box to another within 10 secs) to a performance criterion of ≥85% avoidance responses. A repeated-measures, counterbalanced design was used. Two experiments evaluated the effects of blocking central (with scopolamine) vs. peripheral (with N-methylscopolamine) muscarinic receptors. […] “Subthreshold” of “sub-efficacious” refers to doses that are lower than the therapeutically effective amount for monotherapy but which could be effective in synergy with the antipsychotics tested.
Referring to FIG. 1, the compiled data over independent studies with each compound were analyzed separately via one-way repeated-measures ANOVA. A Dunnett post-hoc test was performed and that dose group significance was only assessed against Vehicle.
Post hoc analysis vs. xanomeline alone (*) and vs. comparator dose alone (#).

[2] = test system: male C57BL/6J mice; experiment: Conditioned avoidance response (CAR) assay, Example 2 (enhanced aripiprazole formulation, two sequential injections); conditions: for Average avoidance response percentages, A alone: Example 2
Procedure: Also, in Example 2, compounds were delivered as two sequential subcutaneous injections rather than one.
In Example 2, a 5% vehicle solution was prepared from 1.0 mL Tween-80 dissolved in 19.0 mL saline. […] The average pH was 3.8 and compound was dosed at a 10 mL/kg bodyweight volume. Drug solutions were prepared fresh on each dosing day before testing. All solutions were mixed or vortexed thoroughly before injections.
Subjects (N=25) were male C57BL/6J, purchased from Jackson Labs, and successfully trained for CAR. Mice were first tested in an aripiprazole dose response study comprised of VEH, 0.3, 1, 3, and 10 mg/kg (data not shown). Dose order was randomly assigned for each mouse. Mice were returned to their home cages for 30 minutes following injection to allow the drug to take effect before testing began.
To match the formulation procedure from Example 1 while maintaining an appropriate volume, a relatively high concentration aripiprazole stock was first made and then diluted to the target concentrations for dosing. A 5% Tween-80 solution was prepared from 2.0 mL Tween-80 dissolved in 38.0 mL of saline. A 3.0 mg/kg aripiprazole solution as a stock was prepared from 3.0 mg aripiprazole dissolved in 5.0 mL 5% Tween-80, giving a concentration of 0.6 mg/mL. At a dosing volume of 5 mL/kg, equaling 3.0 mg/kg. […] The average pH was 6.2. For 0.3 mg/kg aripiprazole, 0.6 mL of the 3 mg/kg aripiprazole stock was diluted in 5.4 mL of 5% Tween-80. For 0.1 mg/kg aripiprazole, 0.2 mL of the 3 mg/kg aripiprazole stock was dissolved in 5.8 mL of 5% Tween-80.
The 1.0 mg/kg xanomeline solution was prepared from 3.05 mg xanomeline dissolved in 10.0 mL of sterile water, giving a concentration of 0.2 mg/mL. At a dosing volume of 10 mL/kg, this equals 1.0 mg/kg. (The drug mass adjustment factor between xanomeline free base and xanomeline tartrate is 1.5262.) The average pH was 4.4.
Dose order was randomly assigned for each mouse. Injection 1 and Injection 2 occurred in sequence, with no gap time. Mice were returned to their home cages for 30 minutes following injection to allow the drugs to take effect before testing began. Mice were injected with vehicle (saline at 10 mL/kg SC and Tween-80 at 5 mL/kg IP) the day before dosing days. Mice were only dosed if their average percent avoidance values for the previous two non-dose days was >85%.
The study then evaluated the effect of blocking muscarinic receptors (via scopolamine) on the activity and efficacy of aripiprazole in the Conditioned Avoidance Response (CAR) assay. The aripiprazole solution was prepared as before. To prepare the 0.3 mg/kg scopolamine solution, 3.397 mg scopolamine was dissolved in 40 mL of saline. The actual drug weight of SCOP in this solution is 2.4 mg (adjusted by a factor 1.41499 for the salt content), giving a concentration of 0.06 mg/mL. At a dosing volume of 5 mL/kg, this equals 0.3 mg/kg. The average pH of this solution was 7.3.

[3] = test system: MK-801-induced locomotor activity in C57BL/6J mice; experiment: MK-801-induced locomotor activity (LMA) assay; assay type: in vivo
From the text: In the CAR assay, mice were first trained to avoid a foot shock (i.e., crossing from one side of a shuttle box to another within 10 secs) to a performance criterion of ≥85% avoidance responses. A repeated-measures, counterbalanced design was used. Two experiments evaluated the effects of blocking central (with scopolamine) vs. peripheral (with N-methylscopolamine) muscarinic receptors. Additional experiments evaluated augmentation and synergy by combining dosing subthreshold doses of xanomeline plus risperidone or aripiprazole. “Subthreshold” of “sub-efficacious” refers to doses that are lower than the therapeutically effective amount for monotherapy but which could be effective in synergy with the antipsychotics tested.
In the LMA assay, varying doses of xanomeline and risperidone were co-formulated. […] After the experiment, plasma and brain tissue were collected to determine drug exposure.
Data are mean (±SEM) total distance traveled.

[4] = Brain and plasma drug exposure collected after the LMA study; assay type: in vivo, mice
From the text: After the experiment, plasma and brain tissue were collected to determine drug exposure.

O=C1CCc2ccc(OCCCCN3CCN(c4cccc(Cl)c4Cl)CC3)cc2N1 [Aripiprazole, aripiprazole]
Average avoidance response percentages, A alone ([1]; aripiprazole 1 mg/kg alone): 2%
Average avoidance response percentages, A alone ([1]; aripiprazole 3 mg/kg alone): 6%
Effect on conditioned avoidance responding (dose-response, FIG. 1) [1]: dose-dependently reduced conditioned avoidance responding
Avoidance responding versus vehicle-vehicle control, drug alone [1]: did not significantly differ from vehicle-vehicle control conditions
Average avoidance response percentages, A alone ([2]; aripiprazole 0.1 mg/kg IP alone): 14%
Average avoidance response percentages, A alone ([2]; aripiprazole 0.3 mg/kg IP alone): 31%
Effects on CAR activity endpoints ([2]; aripiprazole 3 mg/kg IP, FIG. 18, N=15): robust effects on CAR activity endpoints
Escape failures ([2]; aripiprazole 0.1, 0.3 mg/kg with or without xanomeline 1 mg/kg): No dose of aripiprazole or combination dose with xanomeline resulted in escape failures
Disruption of CAR performance (dose response) ([2]; aripiprazole 0.3, 1, 3 and 10 mg/kg, data not shown): effective at disrupting CAR performance in a dose-related manner
Escape failures ([2]; aripiprazole dose response study, 0.3-10 mg/kg): not evident at any doses
ED50 in CAR ([2]; aripiprazole dose response study, Example 2 formulation): ~0.3 mg/kg

C[N+]1(C)[C@@H]2C[C@@H](OC(=O)[C@H](CO)c3ccccc3)C[C@H]1[C@@H]1O[C@@H]12 [N-methyl-scopolamine, N-methylscopolamine]
Blockade of the activity of xanomeline in CAR ([1]; 100-fold higher dose of N-methyl-scopolamine): failed to block the activity of xanomeline
Blockade of xanomeline's effects in CAR by muscarinic antagonist [1]: had no effect

Cc1nc2n(c(=O)c1CCN1CCC(c3noc4cc(F)ccc34)CC1)CCCC2 [Risperidone, risperidone]
Effect on conditioned avoidance responding (dose-response, FIG. 1) [1]: dose-dependently reduced conditioned avoidance responding
Average avoidance response percentages, R alone ([1]; risperidone 0.03 mg/kg alone): 5%
Average avoidance response percentages, R alone ([1]; risperidone 0.1 mg/kg alone): 26%
Average avoidance response percentages, R alone ([1]; risperidone 0.3 mg/kg alone): 85%
Avoidance responding versus vehicle-vehicle control, drug alone [1]: did not significantly differ from vehicle-vehicle control conditions
Activity alone against MK-801 stimulated activity ([3]; risperidone 0.001 mg/kg alone): Inactive

CCCCCCOc1nsnc1C1=CCCN(C)C1 [Xanomeline, xanomeline]
Effect on conditioned avoidance responding (dose-response, FIG. 1) [1]: dose-dependently reduced conditioned avoidance responding
Average avoidance response percentages, X alone ([1]; xanomeline 1 mg/kg alone, aripiprazole combination study (co-formulation, single SC injection), N=16): 5%
Average avoidance response percentages, X alone ([1]; xanomeline 1 mg/kg alone, risperidone combination study, N=17): 7%
Average avoidance response percentages, X alone ([1]; xanomeline 3 mg/kg alone, aripiprazole combination study): 20%
Activity alone against MK-801 stimulated activity ([3]; xanomeline 1 mg/kg alone): Inactive
Xanomeline plasma exposure across the increasing doses of risperidone ([4]; co-dosed with risperidone): no significant increase
Brain level of the named substance ([4]; treatment: MK-801 0.3 + risperidone 0.001 + xanomeline 1 mg/kg): 143.4 ± 4.8 ng/g
Brain level of the named substance ([4]; treatment: MK-801 0.3 + risperidone 0.003 + xanomeline 1 mg/kg): 154.6 ± 9.3 ng/g
Brain level of the named substance ([4]; treatment: MK-801 0.3 + risperidone 0.01 + xanomeline 1 mg/kg, * p<0.05 vs xanomeline alone): 184.9 ± 15.5* ng/g
Brain level of the named substance ([4]; treatment: MK-801 0.3 + xanomeline 1 mg/kg): 126.0 ± 6.6 ng/g
Activity in the CAR assay (percentage avoidance responses and latency to respond) ([2]; 1 mg/kg dose alone): inactive in the CAR assay
Average avoidance response percentages, X alone ([2]; xanomeline 1 mg/kg SC alone, Example 2, N=16): 6%

CN1[C@@H]2C[C@@H](OC(=O)[C@H](CO)c3ccccc3)C[C@H]1[C@@H]1O[C@@H]12 [scopolamine]
Blockade of the activity of xanomeline in CAR ([1]; SCOP 0.03 mg/kg): partially blocks
Blockade of the activity of xanomeline in CAR ([1]; SCOP 0.1 mg/kg): fully
Activity alone in CAR ([1]; SCOP 0.3 mg/kg): has no activity alone in CAR
Blockade of xanomeline's effects in CAR by muscarinic antagonist [1]: dose-dependently blocked xanomeline's effects
Reversal of xanomeline activity in CAR ([1]; scopolamine 0.3 mg/kg): fully reversed xanomeline activity
Effect on risperidone's antipsychotic-like effect in CAR ([1]; scopolamine 0.3 mg/kg, FIG. 12, N=16): failed to attenuate
Effect of scopolamine on the activity of aripiprazole in CAR ([2]; 0.3 mg/kg scopolamine SC 15 minutes before 3.0 mg/kg aripiprazole): slight, but statistically significant effect in reducing the activity of aripiprazole

From patent US20220370454A1, “METHODS FOR TREATING CENTRAL NERVOUS SYSTEM DISORDERS WITH MUSCARINIC RECEPTOR ACTIVATION AND ANTIPSYCHOTICS” (Karuna Therapeutics, Inc., priority 2021, published 2022)
